# In publication PMC10778758, “Dithioethanol (DTE)-Conjugated Deoxyribose Cyclic Dinucleotide Prodrugs (DTE-dCDNs) as STING Agonist” (International Journal of Molecular Sciences, 2023):
# Key:
# [1] = In vitro serum stability assay in 20% fetal bovine serum; type: in vitro ADME; settings: 100 μM, 20% FBS, 37 °C
# Description: In vitro serum stability assay. Each compound (100 μM) was incubated at 37 °C in the reaction buffer including 20% fetal bovine serum (FBS, GIBCO, Thermo Fisher Scientific, Waltham, MA, USA), 10 mM PBS (pH 7.4), and 1 mM MgCl2. At various times, aliquots of the reaction mixture were collected and stopped by adding 50 μL MeCN and diluted with 50 μL water. The reaction mixture was then centrifuged at 10,000 rpm for 5 min, leaving 100 μL supernatant for the HPLC assay. An amount of 10 μL of each aliquot was injected directly into HPLC (Agilent 1260 Infinity HPLC equipped with a UV detector; column Agilent ZORABX SB-C18 5 μm [4.6 × 150 mm; detection at 254 nm; column temperature 25 °C] for analysis. Amounts of 10 mM TEAA buffer (solvent A) and MeCN (solvent B) were used as the mobile phase with a flow rate of 1 mL/min. The gradient was set as the following: 0–2 min: 98% A/2% B; 2–6 min: 98% A/2% B to 100% B; 6–10 min: 100% B; 10–13 min: 100% B to 98% A/2% B; 13–15 min: 98% A/2% B. The % remaining of the test compounds after incubation in the serum was then calculated.
# Figure 4 Parent dCDN of DTE-dCDN prodrug 9 retained a high serum stability. The serum stability analysis of (a) prodrug 9, (b) 3′,3′-c-di-dAMP, (c) 2′,3′-cGAMP and (d) ADU-S100 were determined in 20% FBS. Each compound (100 μM) was incubated in 20% FBS at 37 °C. At various times (0, 2, 4, 8, 12, 24, 48, 72 h), aliquots of the reaction mixture were analyzed with HPLC at 254 nm. The % remaining of test compounds after incubation in serum was calculated.
# [2] = system: THP1-Lucia cells; test: THP1-Lucia cell-based luciferase reporter assay; settings: 24 h
# Description: THP1-Lucia cell-based reporter assay. THP1-Lucia cells were seeded into a 24-well plate at a density of 5 × 10^4 cells/well. […] Finally, the medium was collected to determine the luciferase activity using QUANTI-Luc (InvivoGen, San Diego, CA, USA) according to the manufacturer′s instruction to calculate the EC50 values of the tested compounds. The results are expressed as the mean ± SD from three independent experiments. Emax values were normalized to the response induced by 2′,3′-cGAMP in each assay and expressed as a mean percentage ± SD from three independent experiments. The THP1-Lucia cell line was obtained from Prof. Junmin Quan from Peking University (Beijing, China).
# Figure 5 The luciferase-based assay in the THP1-Lucia reporter cell line. (a) EC50 values represent the mean (±SD) of three independent experiments. (b) Emax values represent the mean (±SD) of three independent experiments.
# [3] = system: THP-1 cells; test: Uptake of DTE-dCDN prodrug, intracellular levels by LC/MS/MS; settings: THP-1 cells treated with 100 μM 3′,3′-c-di-dAMP, within 6 h
# Description: Uptake of DTE-dCDN Prodrug. THP-1 cells were seeded at a concentration of 5 × 10^6 cells/mL into a 12-well plate. After 16 h of incubation at 37 °C in a 5% CO2 atmosphere, the compounds were added to cell cultures and the cells were collected at time points of 1 h, 2 h, 4 h, 6 h, 8 h, 12 h, and 24 h by centrifugation for 1 min at 1000× g. The media was removed completely, and the cells were washed twice with 800 μL of ice-cold PBS before being lysed with 400 μL ice-cold 70% methanol. Lysates were incubated overnight at −20 °C and then centrifuged for 20 min at 13,000× g to remove cellular debris. The supernatant was analyzed via LC/MS/MS (Agilent 1290 Infinity II/6470A)
# (a) The intracellular concentration of the prodrug 9 in THP-1 cells. (b) The intracellular concentration of the parent dCDN (3′,3′-c-di-dAMP) in THP-1 cells. THP-1 cells were treated with 10 μM prodrug 9 or 100 μM parent dCDN (3′,3′-c-di-dAMP) for the indicated period of time (1, 2, 4, 6, 8, 12, 24 h), and the intracellular concentration of the metabolites in cellular extracts was determined with liquid chromatograph MS/MS analysis.
# [4] = system: CT-26 cells; test: RT-qPCR of IFN-β mRNA in CT-26 cells; type: cell-based; settings: CT-26, prodrug 9 and ADU-S100 10 μM, CDNs 100 μM, 4 h
# Description: Real-time quantitative PCR (RT-qPCR). The mRNA expression levels of diverse cytokines were measured using quantitative RT-PCR (RT-qPCR) assays. THP-1 cells or CT26 cells were incubated with the compounds for 4 h, subsequently harvested for RNA isolation according to the manufacturer’s instructions of RNApure Tissue&Cell Kit (DNase I) (CWBIO, Cambridge, MA, USA catalogue no. CW0560S). Next, 1 μg RNA was reversely transcribed to cDNA by TransScript All-in-One First-Strand cDNA Synthesis SuperMix for qPCR (One-Step gDNA Removal) (TransGen, Beijing, China). To examine the mRNA levels, real-time PCR was performed in a CFX96 Real-Time PCR system (Bio-RAD, Hercules, CA, USA) using PerfectStart Green qPCR Super Mix (TransGen) and primers (Sangon Biotech, Shanghai, China). The expression level was calculated according to the formula (2^−∆∆Ct) using the GAPDH or β-actin as the internal reference gene and the relative gene expression fold was normalized to the DMSO-treated cells. The THP-1 and CT26 cell lines were obtained from American Type Culture Collection (ATCC, Manassas, VA, USA). […]
# expression levels of IFN-β were assessed by real-time quantitative PCR (qPCR) under the treatment of prodrug 9 (10 μM), 3′,3′-c-di-dAMP (100 μM), 2′,3′-cGAMP (100 μM) and ADU-S100 (10 μM) for 4 h.
# Figure S3. […]
# levels of IFN-β were assessed by an enzyme-linked immunosorbent assay (ELISA). […]
# [5] = system: THP1-Lucia cells; test: Luciferase activity in THP1-Lucia cells pretreated with STING or TBK1 inhibitor; type: cell-based; settings: inhibitor 10 μM pretreated 1 h, prodrug 9 10 μM, 24 h
# Description: The endogenous 2′,3′-cGAMP was set as the positive control group. H-151 [26] and BX795 [27] were selected to use as the STING inhibitor and TBK1 inhibitor, respectively.
# Figure 6 Prodrug 9 activated the IFN-β promoter responsive luciferase expression through STING signaling pathway. Prodrug 9 (10 μM) and 2′,3′-cGAMP (10 μM) were added to THP1-Lucia cells alone or pretreated with vehicle or H-151 (10 μM), BX795 (10 μM) for 1 h, respectively. The luciferase activity was measured with Quanti-Luc reagent via a 24 h incubation at 37 °C. Data are presented as mean ± SD, n = 3.
SMILES,T1/2 (half-life period) [1] [h],degraded at 72 h [1],effect on induction of luciferase expression by prodrug 9 [5],other results
"Nc1nc2c(ncn2[C@@H]2O[C@@H]3COP(=O)(O)O[C@H]4[C@@H](O)[C@H](n5cnc6c(N)ncnc65)O[C@@H]4COP(=O)(O)O[C@@H]2[C@@H]3O)c(=O)[nH]1 [2′,3′-cGAMP]",31,80%,,
"Nc1ncnc2c1ncn2[C@H]1C[C@@H]2OP(=O)(O)OC[C@H]3O[C@@H](n4cnc5c(N)ncnc54)C[C@@H]3OP(=O)(O)OC[C@H]2O1 [3′,3′-c-di-dAMP]",> 72,did not show any degradation,,"EC50 [2]: 41.3 µM; intracellular levels of the parent dCDN 3′,3′-c-di-dAMP [3]: not detectable"
"Nc1ncnc2c1ncn2[C@@H]1O[C@@H]2COP(=O)([S-])O[C@@H]3[C@H](O)[C@@H](COP([O-])(=S)O[C@H]2[C@H]1O)O[C@H]3n1cnc2c(N)ncnc21.[Na+].[Na+] (stereo partly shown) [ADU-S100, reference compound]",67,,,induction of IFN-β transcription in CT-26 cells [4]: no significant induction
O=C(NCCCNc1nc(Nc2cccc(NC(=O)N3CCCC3)c2)ncc1I)c1cccs1 [BX795],,,could block the induction of the luciferase expression,
CCc1ccc(NC(=O)Nc2c[nH]c3ccccc23)cc1 [H-151],,,could block the induction of the luciferase expression,
